# Measured values: PubChem BioAssay (NCI)
#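 The compound was tested at five concentrations on cells cultured in 96-well plates, with a 48-hour exposure period. TGI: concentration producing complete growth inhibition.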
# Experiments:
# Assay in all cases: NCI tumour cell line growth inhibition, 48 h
# [1] = test system: HCT-15 colon
# [2] = test system: M14 melanoma
# [3] = test system: HCC-2998 colon
# [4] = test system: LOX IMVI melanoma
# [5] = test system: DMS 114 small cell lung
# [6] = test system: SNB-19 CNS
# [7] = test system: IGROV1 ovarian
# [8] = test system: RXF-631 renal
# [9] = test system: LXFL 529 NSCLC
# [10] = test system: MOLT-4 leukemia
# [11] = test system: NCI-H460 lung
# [12] = test system: SW-620 colon
# [13] = test system: HOP-62 NSCLC
# [14] = test system: A498 renal
# [15] = test system: HCT-116 colon
# [16] = test system: CAKI-1 renal
# [17] = test system: MALME-3M melanoma
# [18] = test system: CCRF-CEM leukemia
# [19] = test system: UACC-257 melanoma
# [20] = test system: SF-268 CNS
# [21] = test system: RXF 393 renal
# [22] = test system: OVCAR-3 ovarian
# [23] = test system: DLD-1 colon
# [24] = test system: NCI-H23 lung
# [25] = test system: HL-60(TB) leukemia
# [26] = test system: M19-MEL melanoma
# [27] = test system: KM20L2 colon
# [28] = test system: COLO 205 colon
# [29] = test system: HT29 colon
# [30] = test system: 786-0 renal
# [31] = test system: RPMI-8226 leukemia
# [32] = test system: A549 NSCLC
# [33] = test system: OVCAR-5 ovarian
# [34] = test system: DMS 273 small cell lung
# [35] = test system: SK-MEL-5 melanoma
# [36] = test system: KM12 colon
# [37] = test system: K-562 leukemia
# [38] = test system: SK-MEL-2 melanoma
# [39] = test system: SNB-75 CNS
# [40] = test system: HOP-18 NSCLC
# [41] = test system: SF-295 CNS
# [42] = test system: SF-539 CNS
# [43] = test system: SK-MEL-28 melanoma
# [44] = test system: TK-10 renal
# [45] = test system: OVCAR-4 ovarian
# [46] = test system: OVCAR-8 ovarian
# [47] = test system: UACC-62 melanoma
# [48] = test system: SK-OV-3 ovarian
# [49] = test system: U251 CNS
# [50] = test system: SN12C renal
# [51] = test system: SNB-78 CNS
# [52] = test system: EKVX NSCLC
# [53] = test system: ACHN renal
# [54] = test system: UO-31 renal
# [55] = test system: XF 498 CNS
smiles,measurement,setting,value
CN(C)c1ccc(C(C=C2c3ccccc3Sc3ccccc32)=C(C#N)C#N)cc1,TGI,[1],> 100 µM
same,TGI,[2],> 100 µM
same,TGI,[3],> 100 µM
same,TGI,[4],> 100 µM
same,TGI,[5],> 100 µM
same,TGI,[6],> 100 µM
same,TGI,[7],> 100 µM
same,TGI,[8],> 100 µM
same,TGI,[9],> 100 µM
same,TGI,[10],> 100 µM
same,TGI,[11],> 100 µM
same,TGI,[12],> 100 µM
same,TGI,[13],> 100 µM
same,TGI,[14],> 100 µM
same,TGI,[15],> 100 µM
same,TGI,[16],> 100 µM
same,TGI,[17],> 100 µM
same,TGI,[18],> 100 µM
same,TGI,[19],> 100 µM
same,TGI,[20],> 100 µM
same,TGI,[21],> 100 µM
same,TGI,[22],> 100 µM
same,TGI,[23],> 100 µM
same,TGI,[24],> 100 µM
same,TGI,[25],> 100 µM
same,TGI,[26],> 100 µM
same,TGI,[27],> 100 µM
same,TGI,[28],> 100 µM
same,TGI,[29],> 100 µM
same,TGI,[30],> 100 µM
same,TGI,[31],> 100 µM
same,TGI,[32],> 100 µM
same,TGI,[33],> 100 µM
same,TGI,[34],> 100 µM
same,TGI,[35],> 100 µM
same,TGI,[36],> 100 µM
same,TGI,[37],> 100 µM
same,TGI,[38],> 100 µM
same,TGI,[39],89.9 µM
same,TGI,[40],> 100 µM
same,TGI,[41],> 100 µM
same,TGI,[42],> 100 µM
same,TGI,[43],> 100 µM
same,TGI,[44],> 100 µM
same,TGI,[45],50.1 µM
same,TGI,[46],> 100 µM
same,TGI,[47],> 100 µM
same,TGI,[48],> 100 µM
same,TGI,[49],> 100 µM
same,TGI,[50],> 100 µM
same,TGI,[51],> 100 µM
same,TGI,[52],> 100 µM
same,TGI,[53],> 100 µM
same,TGI,[54],> 100 µM
same,TGI,[55],> 100 µM
